Literature values, collected in patent publication US20090078254A1, “Anesthetic Agent Recovery” (priority 2004, published 2009).
Where two headings read alike, the source gives them in different places.

Assays:
[1] = not given; remark: listed apart in the source
[2] = system: population moving in response to pain; settings: for MAC (Minimum Alveolar Concentration of gas that prevents 50% of population from moving in response to pain): adding 50% MAC N2O drops MAC value of agent by 50%
[3] = in vitro and in vivo studies
[4] = produces inorganic fluoride
[5] = not given; remark: listed apart in the source

Structure (SMILES)	Stability In Moist Soda Lime (40° C.)	Stability In Moist Soda Lime (60° C.)	Stability In Moist Soda Lime (80° C.)	SVP@18° C. [1] [mm Hg]	SVP@20° C. [1] [mm Hg]	SVP@22° C. [1] [mm Hg]	SVP@24° C. [1] [mm Hg]	SVP@26° C. [1] [mm Hg]	MAC (Minimum Alveolar Concentration of gas that prevents 50% of population from moving in response to pain) [2]	Compound stability [3]	saturated vapor pressure ([1]; room temperature) [atm.]	Potency relative to ISOFLURANE ([2]; fraction of isoflurane potency)	metabolism [4] [%]	Stability in the presence of standard CO2 absorbents (soda lime, baralime)	Liver damage ([5]; byproducts of reductive metabolism)	Malignant hyperthermia ([5]; in vivo)
FC(F)OC(Cl)C(F)(F)F (stereo not drawn) [ISOFLURANE]	Stable	Stable	Stable	219	240	262	286	312	1-1.6%	–	–	–	–	–	–	–
FC(F)OC(F)C(F)(F)F (stereo not drawn) [DESFLURANE]	Stable	Stable	Sl. Unstable	653	700	750	804	860	5-8%	extremely stable	~1.0	about ⅕	–	–	–	–
FCOC(C(F)(F)F)C(F)(F)F [SEVOFLURANE]	Unstable	Unstable	Unstable	–	157	–	–	–	1.5-2.5%	–	–	–	5	unstable	–	–
FC(F)(F)C(Cl)Br (stereo not drawn) [HALOTHANE]	–	–	–	–	–	–	–	–	–	–	–	–	–	–	can cause liver damage	potential to cause malignant hyperthermia
